biological target: SARS-CoV-2 M^pro protease (Severe acute respiratory syndrome coronavirus 2 (2019-nCoV) (SARS-CoV-2), UniProt P0DTD1); assay: biochemical; format: biochemical; details: Table 5A; M^pro 75 nM, substrate 10 μM

Row | SMILES | IC50 [nM]
1 | CC(C)(C)C1CC2(C1)NC(=O)N(c1cncc(F)c1)C2=O (stereo not drawn) [Compound 12, 2-tert-butyl-7-(5-fluoropyridin-3-yl)-5,7-diazaspiro[3.4]octane-6,8-dione] | 5500
2 | O=C1NC2(CC(C3CCC3)C2)C(=O)N1c1cncc(Br)c1 (stereo not drawn) [Compound 14, 7-(5-bromopyridin-3-yl)-2-cyclobutyl-5,7-diazaspiro[3.4]octane-6,8-dione] | 6000
3 | Cc1cccnc1CN1C(=O)NC2(CC(C(C)(C)C)C2)C1=O (stereo not drawn) [Compound 9, 2-tert-butyl-7-[(3-methylpyridin-2-yl)methyl]-5,7-diazaspiro[3.4]octane-6,8-dione] | > 10000
4 | Cc1c(Br)cncc1N1C(=O)NC2(CC(C(C)(C)C)C2)C1=O (stereo not drawn) [Compound 5, 7-(5-bromo-4-methylpyridin-3-yl)-2-tert-butyl-5,7-diazaspiro[3.4]octane-6,8-dione] | 2700

same assay, conditions: Tables 5B-5E; M^pro 75 nM, substrate 10 μM

Row | SMILES | IC50 [nM]
5 | O=C1NC2(CC(c3ccccc3Cl)C2)C(=O)N1c1cncc2nccn12 (stereo not drawn) [Compound 99, 2-(2-chlorophenyl)-7-(imidazo[1,2-a]pyrazin-5-yl)-5,7-diazaspiro[3.4]octane-6,8-dione] | 780
6 | O=C1NC2(CC(c3cc(F)ccc3Cl)C2)C(=O)N1c1cncc2ccccc12 (single isomer, unassigned) [Compound 34, 2-(2-chloro-5-fluorophenyl)-7-(isoquinolin-4-yl)-5,7-diazaspiro[3.4]octane-6,8-dione] | 475
7 | O=C1NC2(CC(c3ccccc3Cl)C2)C(=O)N1c1cc(Br)cnc1F (stereo not drawn) [Compound 85, 7-(5-bromo-2-fluoropyridin-3-yl)-2-(2-chlorophenyl)-5,7-diazaspiro[3.4]octane-6,8-dione] | 323
8 | Cc1ccc2cncc(N3C(=O)NC4(CC(C5CCC5)C4)C3=O)c2c1 (stereo not drawn) [Compound 58, 2-cyclobutyl-7-(6-methylisoquinolin-4-yl)-5,7-diazaspiro[3.4]octane-6,8-dione] | 361
9 | O=C1NC2(CC(c3ccccc3Cl)C2)C(=O)N1c1cnnc2ccccc12 (stereo not drawn) [Compound 94, 2-(2-chlorophenyl)-7-(cinnolin-4-yl)-5,7-diazaspiro[3.4]octane-6,8-dione] | 1800
10 | O=C1NC2(CC(c3c(Cl)cccc3Cl)C2)C(=O)N1c1cncc2ccccc12 (single isomer, unassigned) [Compound 29, 2-(2,6-dichlorophenyl)-7-(isoquinolin-4-yl)-5,7-diazaspiro[3.4]octane-6,8-dione] | 165
11 | O=C1NC2(CC(c3ccc(F)cc3Cl)C2)C(=O)N1c1cncc2ccccc12 (stereo not drawn) [Compound 33, 2-(2-chloro-4-fluorophenyl)-7-(isoquinolin-4-yl)-5,7-diazaspiro[3.4]octane-6,8-dione] | 99
12 | O=C1NC2(CC(c3ccccc3Br)C2)C(=O)N1c1cncc2ccccc12 (single isomer, unassigned) [Compound 16, 2-(2-bromophenyl)-7-(isoquinolin-4-yl)-5,7-diazaspiro[3.4]octane-6,8-dione] | 127
13 | CC1(c2ccccc2)CC2(C1)NC(=O)N(c1cncc3ccccc13)C2=O (single isomer, unassigned) [Compound 39, 7-(isoquinolin-4-yl)-2-methyl-2-phenyl-5,7-diazaspiro[3.4]octane-6,8-dione] | 926
14 | O=C1NC2(CC(c3cccc(F)c3Cl)C2)C(=O)N1c1cncc2ccccc12 (single isomer, unassigned) [Compound 31, 2-(2-chloro-3-fluorophenyl)-7-(isoquinolin-4-yl)-5,7-diazaspiro[3.4]octane-6,8-dione] | 150
15 | O=C1NC2(CC(c3ccc(F)cc3Cl)C2)C(=O)N1c1cncc2ccccc12 (stereo not drawn) [Compound 32, 2-(2-chloro-4-fluorophenyl)-7-(isoquinolin-4-yl)-5,7-diazaspiro[3.4]octane-6,8-dione] | 95
16 | O=C1NC2(CC(c3ccccc3Cl)C2)C(=O)N1c1cnccc1C(F)(F)F (stereo not drawn) [Compound 92, 2-(2-chlorophenyl)-7-(4-(trifluoromethyl)pyridin-3-yl)-5,7-diazaspiro[3.4]octane-6,8-dione] | 309
17 | CN(C)c1ccncc1N1C(=O)NC2(CC(c3ccccc3Cl)C2)C1=O (stereo not drawn) [Compound 93, 2-(2-chlorophenyl)-7-(4-(dimethylamino)pyridin-3-yl)-5,7-diazaspiro[3.4]octane-6,8-dione] | 157
18 | CC1(c2ccc(F)cc2Cl)CC2(C1)NC(=O)N(c1cncc3ccccc13)C2=O (single isomer, unassigned) [Compound 84, 2-(2-chloro-4-fluorophenyl)-7-(isoquinolin-4-yl)-2-methyl-5,7-diazaspiro[3.4]octane-6,8-dione] | 806
19 | O=C1NC2(CC(c3c(F)cccc3Cl)C2)C(=O)N1c1cncc2ccccc12 (single isomer, unassigned) [Compound 36, 2-(2-chloro-6-fluorophenyl)-7-(isoquinolin-4-yl)-5,7-diazaspiro[3.4]octane-6,8-dione] | 205
20 | C=CCN1C(=O)N(c2cncc3ccccc23)C(=O)C12CC(C1CCC1)C2 (stereo not drawn) [Compound 74, 5-allyl-2-cyclobutyl-7-(isoquinolin-4-yl)-5,7-diazaspiro[3.4]octane-6,8-dione] | 1510
21 | O=C1NC2(CC(c3ccccc3Cl)C2)C(=O)N1c1cncc2ccc(F)cc12 (stereo not drawn) [Compound 54, 2-(2-chlorophenyl)-7-(6-fluoroisoquinolin-4-yl)-5,7-diazaspiro[3.4]octane-6,8-dione] | 66

Row | SMILES | IC50 [nM]
22 | O=C1NC2(CC(c3cn(Cc4ccccc4)nn3)C2)C(=O)N1c1cncc2ccccc12 (stereo not drawn) [Compound 47, 2-(1-benzyl-1H-1,2,3-triazol-4-yl)-7-(isoquinolin-4-yl)-5,7-diazaspiro[3.4]octane-6,8-dione] | 10800
23 | O=C1NC2(CC(c3ccccc3Cl)C2)C(=O)N1c1cncc2cc(F)ccc12 (stereo not drawn) [Compound 55, 2-(2-chlorophenyl)-7-(7-fluoroisoquinolin-4-yl)-5,7-diazaspiro[3.4]octane-6,8-dione] | 187
24 | O=C1NC2(CC(c3ccc(F)cc3)C2)C(=O)N1c1cncc2ccccc12 (stereo not drawn) [Compound 27, 2-(4-fluorophenyl)-7-(isoquinolin-4-yl)-5,7-diazaspiro[3.4]octane-6,8-dione] | 441
25 | CC1(c2ccccc2)CC2(C1)NC(=O)N(c1cncc3ccccc13)C2=O (single isomer, unassigned) [Compound 38, 7-(isoquinolin-4-yl)-2-methyl-2-phenyl-5,7-diazaspiro[3.4]octane-6,8-dione] | 71
26 | O=C1NC2(CC(c3c(F)cccc3Cl)C2)C(=O)N1c1cncc2ccccc12 (single isomer, unassigned) [Compound 37, 2-(2-chloro-6-fluorophenyl)-7-(isoquinolin-4-yl)-5,7-diazaspiro[3.4]octane-6,8-dione] | 64
27 | O=C1NC2(CC(c3sccc3Cl)C2)C(=O)N1c1cncc2ccccc12 (single isomer, unassigned) [Compound 42, 2-(3-chlorothiophen-2-yl)-7-(isoquinolin-4-yl)-5,7-diazaspiro[3.4]octane-6,8-dione] | 185
28 | O=C1N(c2cncc3ccccc23)C(=O)C2(CC(C3CCC3)C2)N1Cc1ccn[nH]1 (stereo not drawn) [Compound 80, 5-((1H-pyrazol-5-yl)methyl)-2-cyclobutyl-7-(isoquinolin-4-yl)-5,7-diazaspiro[3.4]octane-6,8-dione] | 3820
29 | O=C1NC2(CC(c3ccccc3Cl)C2)C(=O)N1c1cccnc1 (stereo not drawn) [Compound 100, 2-(2-chlorophenyl)-7-(pyridin-3-yl)-5,7-diazaspiro[3.4]octane-6,8-dione] | 295
30 | O=C1NC2(CC(c3cc(F)ccc3Cl)C2)C(=O)N1c1cncc2ccccc12 (single isomer, unassigned) [Compound 35, 2-(2-chloro-5-fluorophenyl)-7-(isoquinolin-4-yl)-5,7-diazaspiro[3.4]octane-6,8-dione] | 82
31 | N#CCN1C(=O)N(c2cncc3ccccc23)C(=O)C12CC(C1CCC1)C2 (stereo not drawn) [Compound 72, 2-(2-cyclobutyl-7-(isoquinolin-4-yl)-6,8-dioxo-5,7-diazaspiro[3.4]octan-5-yl)acetonitrile] | 1360
32 | O=C1NC2(CC(c3ccccc3Br)C2)C(=O)N1c1cncc2ccccc12 (single isomer, unassigned) [Compound 17, 2-(2-bromophenyl)-7-(isoquinolin-4-yl)-5,7-diazaspiro[3.4]octane-6,8-dione] | 79
33 | Cc1ccccc1C1CC2(C1)NC(=O)N(c1cncc3ccccc13)C2=O (stereo not drawn) [Compound 23, 7-(isoquinolin-4-yl)-2-(o-tolyl)-5,7-diazaspiro[3.4]octane-6,8-dione] | 925
34 | O=C1NC2(CC(c3ccccc3C(F)(F)F)C2)C(=O)N1c1cncc2ccccc12 (stereo not drawn) [Compound 22, 7-(isoquinolin-4-yl)-2-(2-(trifluoromethyl)phenyl)-5,7-diazaspiro[3.4]octane-6,8-dione] | 197
35 | O=C1N(c2cncc3ccccc23)C(=O)C2(CC(C3CCC3)C2)N1Cc1cc(Cl)nc(Cl)c1 (stereo not drawn) [Compound 71, 2-cyclobutyl-5-((2,6-dichloropyridin-4-yl)methyl)-7-(isoquinolin-4-yl)-5,7-diazaspiro[3.4]octane-6,8-dione] | 1070
36 | Cc1ccnc(F)c1N1C(=O)NC2(CC(c3ccccc3Cl)C2)C1=O (stereo not drawn) [Compound 90, 2-(2-chlorophenyl)-7-(2-fluoro-4-methylpyridin-3-yl)-5,7-diazaspiro[3.4]octane-6,8-dione] | 223
37 | O=C1NC2(CC(c3sccc3Br)C2)C(=O)N1c1cncc2ccccc12 (single isomer, unassigned) [Compound 45, 2-(3-bromothiophen-2-yl)-7-(isoquinolin-4-yl)-5,7-diazaspiro[3.4]octane-6,8-dione] | 57

same assay, conditions: percent of control activity at 750 nM; read-out: % activity at 750 nM

Row | SMILES | activity at […] [%]
38 | O=C1NC2(CC(c3ccccc3Cl)C2)C(=O)N1c1c(Cl)ncc2ccccc12 (stereo not drawn) [Compound 86, 7-(3-chloroisoquinolin-4-yl)-2-(2-chlorophenyl)-5,7-diazaspiro[3.4]octane-6,8-dione] | 57

same assay, conditions: percent of control activity at 2500 nM; read-out: % activity at 2500 nM

Row | SMILES | activity at […] [%]
39 | O=C1NC2(CC(c3ccccc3Cl)C2)C(=O)N1c1cnccc1Oc1ccccc1 (stereo not drawn) [Compound 82, 2-(2-chlorophenyl)-7-(4-phenoxypyridin-3-yl)-5,7-diazaspiro[3.4]octane-6,8-dione] | 55
